Data on 11 compounds can be found in US8952006B2, “Morpholinoalkyl fumarate compounds, pharmaceutical compositions, and methods of use” (XenoPort, Inc., priority 2012, dated 2015).

For data set [1], the system named is imiquimod (IMQ) mouse model of psoriasis. The data set can be described thus: Imiquimod (IMQ) mouse model of psoriasis. To be noted: oral dose of 90 mg-eq MMF/kg BID for 10 days in male Balb/C mice. The format is in vivo. How it is done:
Imidquimod model of skin inflammation (Fits et al The Journal of Immunology, 2009, 182: 5836-5845). 10-12 week old BALB/c, I117c+/+ or I117c−/−, or I117re+/+ or I117re−/− mice were administered 50 mg Aldara cream (5% Imidquimod in Graceway, 3M) in the shaved back and right ear daily for 5 days. Clinical scoring and ear thickness measurements were performed daily. Scoring was based upon the manifestation of psoriatic symptoms, such as erythema, scaling and thickness: 0, No disease. 1, Very mild erythema with very mild thickening and scaling involving a small area. 2, Mild erythema with mild thickening and scaling involving a small area. 3, Moderate erythema with moderate thickening and scaling (irregular and patchy) involving a small area (<25%). 4, Severe erythema with marked thickening and scaling (irregular and patchy) involving a moderate area (25-50%). 5, Severe erythema with marked thickening and scaling (irregular and patchy) involving a large area (>50%). Ear and back tissue were harvested on day 5 for histological evaluation.
Efficacy of compounds of the disclosure and DMF is compared in the imiquimod (IMQ) mouse model of psoriasis. Balb/c mice (10 males/group) received daily topical IMQ (5% cream) on shaved back and right ear for 5 days as described above. Animals received oral dose of a representative compound of the disclosure or DMF (45 or 90 mg-eq MMF/kg twice daily) or vehicle from Day −5 to Day 5. Erythema score is the primary outcome measure.
The Erythema score values of the compounds tested at an oral dose of 90 mg-eq MMF/kg BID for 10 days in male Balb/C mice are set forth in Table 3, below.

In data set [2] the test system is stomach lesions in the rat. The data set can be described thus: Annamalai-Ma gastrointestinal irritation rat model. In kind it is in vivo. Conditions: rats, oral 180 mg-equivalents MMF/kg once per day for 4 days; score 0 (normal mucosa) to 5 (severe ulceration), Table 4. The source says:
At least one MMF prodrug, e.g., dimethyl fumarate, is known to cause gastrointestinal irritation. The Annamalai-Ma gastrointestinal irritation rat model is predictive of gastrointestinal irritation of MMF prodrugs in humans. This animal model has several common features of other published GI irritation animal models including the Whiteley-Dalrymple model described in Models of Inflammation: Measuring Gastrointestinal Ulceration in the Rat, Pharmacology (1998) 10.2.1-10.2.4; as well as the animal models disclosed in Joseph J. Bertone, DVM, MS, DipACVIM. Prevalence of Gastric Ulcers in Elite, Heavy Use Western Performance Horses, AAEP Proceedings/Vol. 46/2000; and İsbíl Büyükcoskun N., Central Effects of Glucagon-like Peptide-1 on Cold Restraint Stress-induced Gastric Mucosal Lesions, Physiol. Res. 48: 451-455, 1999.
In order to assess gastrointestinal irritation using this model, rats are treated orally with either vehicle or the MMF prodrug of the present disclosure (n=10 per group) at 180 mg-equivalents MMF/kg of animal body weight, dosed once per day for 4 days, followed by necropsy and gastrointestinal evaluation at 24 hrs after the final dose. Evans Blue dye is injected IV (tail vein) to visually emphasize any lesions in the gastrointestinal tissue.
Accordingly, rats are dosed once per day for 4 consecutive days with 180 mg-equivalents MMF/kg body weight per day. The animals are fasted overnight prior to necropsy. On Day 5, to help visualize lesions, 1 mL of 1% Evan's blue in saline is injected into the tail vein 30 minutes prior to euthanasia. The animals are euthanized by inhalation of carbon dioxide. A partial necropsy, limited to the abdominal cavities, is then performed. The stomach and small intestine are removed. Residual material is washed away, using an irrigation syringe filled with saline. The stomach is cut along the larger curvature and washed gently with normal saline, and is examined for any lesions. The stomachs are scored in accordance with the scoring system outlined in Table 4.

For data set [3] the following is noted: cited from earlier work.

Where a name gives a salt, the structure may show the parent alone.

In the case of `COC(=O)/C=C/C(=O)OCCCN1CCOCC1` [Compound 4, Methyl(3-morpholinopropyl)fumarate HCl salt], the “Erythema Score (% Relative to IMQ)” value in data set [1] is listed as 73.3 % Relative to IMQ. Also, the “Stomach Irritation Score” value in data set [2] was determined as 0.
As usually defined, the melting point is the temperature of the solid-liquid transition. The compound `COC(=O)/C=C/C(=O)OCCCN1CCOCC1` (as salt: HCl) [Compound 4, Methyl(3-morpholinopropyl)fumarate HCl salt] returned a melting point of 185.2 °C.
`COC(=O)/C=C/C(=O)OCCCCN1CCOCC1` [Compound 6, Methyl(4-morpholinobutyl)fumarate HCl salt]: the “Erythema Score (% Relative to IMQ)” value in data set [1] was 57.1 % Relative to IMQ. In addition, the “Stomach Irritation Score” value in data set [2] came to 0.6.
Consider `COC(=O)/C=C/C(=O)OCC(=O)N1CCOCC1` [CC-1, reference compound], for which the “Stomach Irritation Score” value in data set [2] worked out at 2.9.
For the compound `COC(=O)/C=C/C(=O)OC` [DMF, dimethyl fumarate, reference compound], the “Erythema Score (% Relative to IMQ)” value in data set [1] is reported as 74.1 % Relative to IMQ. Besides, in data set [2], the “Stomach Irritation Score” value came to 4.6. The Aqueous solubility result in data set [3] is listed as “poor”.
In turn, `COC(=O)/C=C/C(=O)OCCCCCCN1CCOCC1` (as salt: HCl) [Compound 10, Methyl(6-morpholinohexyl)fumarate HCl salt] showed a melting point of 104.1 °C.
For `COC(=O)/C=C/C(=O)OCCCCCN1CCOCC1` [Compound 8, Methyl(5-morpholinopentyl)fumarate HCl salt], the “Erythema Score (% Relative to IMQ)” value in data set [1] is 59.3 % Relative to IMQ. Besides, the “Stomach Irritation Score” value in data set [2] came to 0.
`COC(=O)/C=C/C(=O)OCCCCN1CCOCC1` (as salt: HCl) [Compound 6, Methyl(4-morpholinobutyl)fumarate HCl salt] yielded a melting point of 145.5 °C.
As to `COC(=O)/C=C/C(=O)OCCN1CCOCC1` [Compound 2, Methyl(2-morpholinoethyl)fumarate HCl salt], the “Erythema Score (% Relative to IMQ)” value in data set [1] is given as 69 % Relative to IMQ. Further, the “Stomach Irritation Score” value in data set [2] worked out at 0.
Taken in the same sequence, the figures for `COC(=O)/C=C/C(=O)OCCCCCCN1CCOCC1` [Compound 10, Methyl(6-morpholinohexyl)fumarate HCl salt] were 66.7 % Relative to IMQ and 0.
Compound `COC(=O)/C=C/C(=O)OCCCCCN1CCOCC1` (as salt: HCl) [Compound 8, Methyl(5-morpholinopentyl)fumarate HCl salt] yielded a melting point of 150 °C.
